Molecules are shown by their SMILES. Read-outs that look alike come from different tables or passages of the source.

Assay [1] deals with T1, tau (Homo sapiens, UniProt P10636). The assay is classed as biochemical.
The target in assay [2] is T1, tau. The assay is classed as biochemical. This is another data set of the same source.

T1 sequence (P10636 1-441 isoform P10636-8): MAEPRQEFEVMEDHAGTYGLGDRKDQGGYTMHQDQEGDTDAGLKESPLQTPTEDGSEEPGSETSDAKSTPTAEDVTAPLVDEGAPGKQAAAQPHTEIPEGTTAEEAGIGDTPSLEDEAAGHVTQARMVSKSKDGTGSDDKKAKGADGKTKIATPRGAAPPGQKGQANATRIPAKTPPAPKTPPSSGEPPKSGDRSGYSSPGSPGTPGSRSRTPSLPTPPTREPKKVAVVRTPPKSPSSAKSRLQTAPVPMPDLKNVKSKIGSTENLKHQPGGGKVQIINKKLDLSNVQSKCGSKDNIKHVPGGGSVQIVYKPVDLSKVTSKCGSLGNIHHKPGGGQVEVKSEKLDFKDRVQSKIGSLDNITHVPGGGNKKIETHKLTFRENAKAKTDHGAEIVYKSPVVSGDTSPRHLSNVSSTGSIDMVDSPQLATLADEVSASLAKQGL

Take `CC[C@H](C)/C=C(C)/C=C/C1=CC2=C(Br)C(=O)C(C)(OC(C)=O)C(=O)C2=CO1` (some centres unmarked) [aza-9]: the IC50 against tau [1] was determined as 56 ± 14 µM.

`CC[C@H](C)/C=C(C)/C=C/C1=CC2=C(Br)C(=O)C(C)(O)C(=O)C2=CO1` (some centres unmarked) [aza-13]: the IC50 against tau [2] worked out at 216 ± 18 µM.
